The record followed here is ChEMBL document CHEMBL3991601, “The target landscape of clinical kinase drugs” (Science, 2017).

Structures are written as SMILES. Active and inactive are the calls of the source. Cut-off read from the data, not from the text of the source, for most assays here: actives have a measured Kd and inactives only a lower limit. A value given as a limit tells only on which side of the number the result lay.

One test deals with T1, Aurora kinase A (Homo sapiens, UniProt O14965).
T1 sequence (O14965 whole entry): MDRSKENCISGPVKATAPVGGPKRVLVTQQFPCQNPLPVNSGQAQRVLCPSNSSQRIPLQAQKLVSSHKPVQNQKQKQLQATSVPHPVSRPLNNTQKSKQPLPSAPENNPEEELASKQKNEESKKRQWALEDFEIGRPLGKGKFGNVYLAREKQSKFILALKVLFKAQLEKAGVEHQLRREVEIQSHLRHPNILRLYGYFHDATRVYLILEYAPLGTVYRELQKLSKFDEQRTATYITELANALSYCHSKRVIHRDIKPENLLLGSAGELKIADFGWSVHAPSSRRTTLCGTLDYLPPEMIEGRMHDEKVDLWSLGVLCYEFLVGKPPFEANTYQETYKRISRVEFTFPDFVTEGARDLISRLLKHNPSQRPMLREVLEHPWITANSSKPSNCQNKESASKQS

Test [1] deals with Tyrosine-protein kinase BTK (Homo sapiens, UniProt Q06187).
Test [2] concerns the target Mitotic checkpoint serine/threonine-protein kinase BUB1 (Homo sapiens, UniProt O43683).
The target in test [3] is Cyclin-dependent kinase 1 (Homo sapiens, UniProt P06493).
Test [4] deals with T2, ATP-dependent RNA helicase DDX42 (Homo sapiens, UniProt Q86XP3).
T2 sequence (Q86XP3 whole entry): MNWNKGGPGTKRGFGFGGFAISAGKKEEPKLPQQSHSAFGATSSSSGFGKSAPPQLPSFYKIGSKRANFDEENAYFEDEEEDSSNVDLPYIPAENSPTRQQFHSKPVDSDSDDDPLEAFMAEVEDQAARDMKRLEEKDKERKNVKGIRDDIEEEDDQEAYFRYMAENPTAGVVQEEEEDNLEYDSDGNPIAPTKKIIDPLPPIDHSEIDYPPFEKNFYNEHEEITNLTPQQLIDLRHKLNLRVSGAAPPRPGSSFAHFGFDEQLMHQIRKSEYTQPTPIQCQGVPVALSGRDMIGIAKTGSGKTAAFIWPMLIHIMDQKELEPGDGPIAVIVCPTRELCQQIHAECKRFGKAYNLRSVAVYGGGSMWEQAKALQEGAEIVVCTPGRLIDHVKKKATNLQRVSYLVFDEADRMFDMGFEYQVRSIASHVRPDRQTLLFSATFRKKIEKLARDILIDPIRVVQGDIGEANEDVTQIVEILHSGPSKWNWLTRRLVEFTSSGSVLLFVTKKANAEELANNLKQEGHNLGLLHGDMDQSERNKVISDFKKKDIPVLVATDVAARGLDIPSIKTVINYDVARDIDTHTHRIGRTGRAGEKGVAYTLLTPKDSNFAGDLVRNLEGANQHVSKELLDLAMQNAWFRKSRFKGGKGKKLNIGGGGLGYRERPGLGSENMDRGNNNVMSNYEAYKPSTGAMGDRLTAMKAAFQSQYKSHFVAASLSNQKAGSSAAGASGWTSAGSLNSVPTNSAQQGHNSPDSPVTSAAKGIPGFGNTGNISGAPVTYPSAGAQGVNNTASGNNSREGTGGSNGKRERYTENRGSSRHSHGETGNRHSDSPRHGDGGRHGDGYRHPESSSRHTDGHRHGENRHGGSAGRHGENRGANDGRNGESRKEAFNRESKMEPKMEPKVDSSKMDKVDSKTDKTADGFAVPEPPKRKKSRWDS

Test [5] has as its target Tyrosine-protein kinase Fer (Homo sapiens, UniProt P16591).
In test [6] the target is T3, Serine/threonine-protein kinase 3 (Homo sapiens, UniProt Q13188).
T3 sequence (Q13188 whole entry): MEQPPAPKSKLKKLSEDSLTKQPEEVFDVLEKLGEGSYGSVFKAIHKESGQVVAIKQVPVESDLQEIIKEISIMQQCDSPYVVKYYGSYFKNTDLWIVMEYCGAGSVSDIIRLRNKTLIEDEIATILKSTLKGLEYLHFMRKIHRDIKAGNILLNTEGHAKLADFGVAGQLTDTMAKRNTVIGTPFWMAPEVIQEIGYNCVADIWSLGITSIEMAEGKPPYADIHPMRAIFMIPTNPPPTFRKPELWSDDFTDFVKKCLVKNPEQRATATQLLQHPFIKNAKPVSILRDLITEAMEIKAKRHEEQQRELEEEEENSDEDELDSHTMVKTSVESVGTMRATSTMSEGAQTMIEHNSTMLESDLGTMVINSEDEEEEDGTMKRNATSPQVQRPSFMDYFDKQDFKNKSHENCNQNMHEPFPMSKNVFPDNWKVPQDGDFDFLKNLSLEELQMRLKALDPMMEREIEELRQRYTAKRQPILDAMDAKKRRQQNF

The target in test [7] is T4, General transcription and DNA repair factor IIH helicase subunit XPD (Homo sapiens, UniProt P18074).
T4 sequence (P18074 whole entry): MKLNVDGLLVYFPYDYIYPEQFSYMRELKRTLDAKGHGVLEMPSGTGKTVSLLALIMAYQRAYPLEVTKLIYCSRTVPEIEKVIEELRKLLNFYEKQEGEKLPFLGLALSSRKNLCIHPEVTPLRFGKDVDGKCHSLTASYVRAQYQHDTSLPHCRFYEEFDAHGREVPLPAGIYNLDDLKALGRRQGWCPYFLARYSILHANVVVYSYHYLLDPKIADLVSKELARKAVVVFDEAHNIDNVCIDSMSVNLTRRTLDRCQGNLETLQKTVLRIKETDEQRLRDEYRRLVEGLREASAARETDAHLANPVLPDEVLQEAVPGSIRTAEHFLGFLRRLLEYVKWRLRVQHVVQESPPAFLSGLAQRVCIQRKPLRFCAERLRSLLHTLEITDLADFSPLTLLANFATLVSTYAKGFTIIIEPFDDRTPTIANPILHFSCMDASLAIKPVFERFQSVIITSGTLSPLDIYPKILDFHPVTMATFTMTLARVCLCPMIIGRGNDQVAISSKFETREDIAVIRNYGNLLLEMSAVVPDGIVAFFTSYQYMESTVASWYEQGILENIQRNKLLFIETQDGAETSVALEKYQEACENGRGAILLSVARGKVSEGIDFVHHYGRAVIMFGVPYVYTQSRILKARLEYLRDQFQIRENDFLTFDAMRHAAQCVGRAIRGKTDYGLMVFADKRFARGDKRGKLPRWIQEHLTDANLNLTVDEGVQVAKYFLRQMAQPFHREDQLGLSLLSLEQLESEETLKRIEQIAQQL
Conditions: read-out: Kd apparent; k-562, colo 205, sk-n-be(2) and mv-4-11.
Note: in the data inactive means no Kd found up to 30 µM.

Tyrosine-protein kinase BTK, sequence (Q06187 whole entry): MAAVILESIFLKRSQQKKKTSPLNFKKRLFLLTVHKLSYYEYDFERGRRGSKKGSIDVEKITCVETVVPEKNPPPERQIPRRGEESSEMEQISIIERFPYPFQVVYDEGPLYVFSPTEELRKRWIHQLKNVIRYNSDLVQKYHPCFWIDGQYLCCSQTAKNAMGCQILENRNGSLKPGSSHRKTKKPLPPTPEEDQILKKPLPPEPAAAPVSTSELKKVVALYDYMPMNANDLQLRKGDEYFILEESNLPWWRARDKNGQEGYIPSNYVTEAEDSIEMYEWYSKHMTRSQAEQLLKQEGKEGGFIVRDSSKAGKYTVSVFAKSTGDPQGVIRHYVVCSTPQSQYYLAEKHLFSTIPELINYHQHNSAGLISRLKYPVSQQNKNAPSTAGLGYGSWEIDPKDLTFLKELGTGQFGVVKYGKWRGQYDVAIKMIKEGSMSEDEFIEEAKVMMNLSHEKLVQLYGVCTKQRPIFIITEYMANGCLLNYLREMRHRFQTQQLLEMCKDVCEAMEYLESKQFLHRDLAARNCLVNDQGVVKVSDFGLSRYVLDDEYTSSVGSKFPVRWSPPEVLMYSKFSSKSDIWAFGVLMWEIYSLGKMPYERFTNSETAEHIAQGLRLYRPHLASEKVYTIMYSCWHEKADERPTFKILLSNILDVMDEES
Cyclin-dependent kinase 1, sequence (P06493 whole entry): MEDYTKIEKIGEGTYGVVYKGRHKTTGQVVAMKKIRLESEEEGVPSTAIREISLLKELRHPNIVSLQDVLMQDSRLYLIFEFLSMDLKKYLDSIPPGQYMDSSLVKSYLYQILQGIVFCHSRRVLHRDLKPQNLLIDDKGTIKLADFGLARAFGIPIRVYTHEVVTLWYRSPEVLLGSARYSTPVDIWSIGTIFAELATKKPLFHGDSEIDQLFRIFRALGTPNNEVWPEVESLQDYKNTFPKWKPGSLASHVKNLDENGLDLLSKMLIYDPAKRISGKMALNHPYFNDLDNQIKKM
Mitotic checkpoint serine/threonine-protein kinase BUB1, sequence (O43683 whole entry): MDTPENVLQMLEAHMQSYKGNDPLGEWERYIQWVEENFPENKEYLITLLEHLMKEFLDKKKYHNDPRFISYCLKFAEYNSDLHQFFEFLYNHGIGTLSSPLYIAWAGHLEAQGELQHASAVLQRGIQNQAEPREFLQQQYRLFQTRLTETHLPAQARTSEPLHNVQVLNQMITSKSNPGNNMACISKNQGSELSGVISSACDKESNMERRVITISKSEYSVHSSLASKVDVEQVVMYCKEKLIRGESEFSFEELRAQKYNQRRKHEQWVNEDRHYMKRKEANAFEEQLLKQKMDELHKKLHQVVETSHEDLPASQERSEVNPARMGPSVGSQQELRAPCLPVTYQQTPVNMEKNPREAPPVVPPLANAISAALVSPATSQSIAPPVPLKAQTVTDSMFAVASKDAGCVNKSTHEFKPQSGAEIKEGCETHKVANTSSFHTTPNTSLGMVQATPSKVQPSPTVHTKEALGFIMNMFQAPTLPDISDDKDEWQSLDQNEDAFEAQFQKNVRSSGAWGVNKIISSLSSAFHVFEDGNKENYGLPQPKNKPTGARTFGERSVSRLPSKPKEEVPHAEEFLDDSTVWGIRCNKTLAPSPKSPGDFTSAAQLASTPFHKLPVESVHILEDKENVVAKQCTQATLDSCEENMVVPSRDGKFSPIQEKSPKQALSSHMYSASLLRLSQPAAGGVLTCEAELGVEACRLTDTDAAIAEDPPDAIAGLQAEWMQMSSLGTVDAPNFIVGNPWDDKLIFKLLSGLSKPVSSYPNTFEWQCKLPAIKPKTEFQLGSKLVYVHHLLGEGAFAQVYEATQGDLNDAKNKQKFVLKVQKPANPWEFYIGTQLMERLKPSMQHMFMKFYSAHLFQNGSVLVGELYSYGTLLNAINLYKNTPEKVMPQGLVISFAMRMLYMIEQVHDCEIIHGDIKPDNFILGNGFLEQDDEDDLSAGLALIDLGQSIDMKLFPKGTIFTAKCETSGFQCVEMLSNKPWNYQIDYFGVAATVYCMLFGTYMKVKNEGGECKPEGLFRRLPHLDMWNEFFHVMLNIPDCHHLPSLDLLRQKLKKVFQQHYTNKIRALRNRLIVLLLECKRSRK
Tyrosine-protein kinase Fer, sequence (P16591 whole entry): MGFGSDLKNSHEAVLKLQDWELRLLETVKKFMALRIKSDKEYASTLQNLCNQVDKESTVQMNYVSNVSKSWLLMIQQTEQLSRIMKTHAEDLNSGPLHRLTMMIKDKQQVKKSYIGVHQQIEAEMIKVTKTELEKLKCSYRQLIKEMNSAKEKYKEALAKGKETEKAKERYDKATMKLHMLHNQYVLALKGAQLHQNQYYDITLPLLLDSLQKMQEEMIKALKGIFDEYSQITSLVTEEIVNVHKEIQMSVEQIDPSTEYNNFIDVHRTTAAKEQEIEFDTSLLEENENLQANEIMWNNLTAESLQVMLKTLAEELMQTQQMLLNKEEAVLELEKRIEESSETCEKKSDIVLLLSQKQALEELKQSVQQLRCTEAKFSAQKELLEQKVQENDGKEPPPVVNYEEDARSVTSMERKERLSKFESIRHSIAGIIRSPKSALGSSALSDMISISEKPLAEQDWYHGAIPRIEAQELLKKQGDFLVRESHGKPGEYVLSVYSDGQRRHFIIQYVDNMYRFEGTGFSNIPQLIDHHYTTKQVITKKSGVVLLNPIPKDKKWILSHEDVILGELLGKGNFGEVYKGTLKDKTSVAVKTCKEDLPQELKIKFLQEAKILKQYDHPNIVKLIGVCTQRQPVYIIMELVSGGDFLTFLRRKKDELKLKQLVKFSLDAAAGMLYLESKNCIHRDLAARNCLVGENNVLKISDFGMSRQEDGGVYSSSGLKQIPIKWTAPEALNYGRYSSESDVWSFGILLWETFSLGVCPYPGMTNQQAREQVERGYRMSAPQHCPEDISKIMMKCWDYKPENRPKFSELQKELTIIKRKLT

Consider `C=CC(=O)N1CCC[C@H](n2c(=O)n(-c3ccc(Oc4ccccc4)cc3)c3c(N)ncnc32)C1`, for which the Kd on Aurora kinase A was > 30 µM (inactive); in test [1], 0.004 µM (active); in test [2] it was > 30 µM (inactive); in test [3], > 30 µM (inactive); in test [4] it was > 30 µM (inactive); in test [5], > 30 µM (inactive). In addition, the Kd in test [6] and in test [7] was > 30 µM (inactive) in each case.
For `COCc1c(-c2ccc(NC(=O)Nc3cc(C(F)(F)F)ccc3F)c(F)c2)c2c(N)ncnn2c1CN1CCOCC1`, the Kd (on Aurora kinase A; in test [1]; in test [2]; in test [3]; in test [4]; in test [5]) was > 30 µM (inactive) in each case. Moreover, the Kd in test [6] and in test [7] was > 30 µM (inactive) each time.
As for `Cc1nc(NC(=O)N2CCC[C@H]2C(N)=O)sc1-c1ccnc(C(C)(C)C(F)(F)F)c1` [ALPELISIB], the Kd (at Aurora kinase A; in test [1]; in test [3]; in test [5]; in test [6]; in test [7]) was > 30 µM (inactive) in each case.
In the case of `Cc1cc(C(=O)NOCCO)c(Nc2ccc(I)cc2F)n(C)c1=O` [AZD-8330], the Kd (on Aurora kinase A; in test [1]; in test [3]; in test [4]; in test [5]; in test [6]) was > 30 µM (inactive) throughout. In addition, in test [7], the Kd was > 30 µM (inactive).
`COc1c(OCCCN2CCOCC2)ccc2c1N=C(NC(=O)c1cnc(N)nc1)N1CCN=C21` [COPANLISIB]: the Kd (on Aurora kinase A; in test [1]; in test [2]; in test [3]; in test [4]; in test [5]) was > 30 µM (inactive) each time. Moreover, the Kd in test [6] was > 30 µM (inactive).
In the case of `O=C(Nc1nc2cccc(-c3ccc(CN4CCS(=O)(=O)CC4)cc3)n2n1)C1CC1` [FILGOTINIB], the Kd (at Aurora kinase A; in test [1]; in test [2]; in test [3]; in test [4]; in test [5]) was > 30 µM (inactive) each time. Besides, in test [6], the Kd is > 30 µM (inactive).
For `COc1ccc(S(=O)(=O)N(C(C)=O)c2ccccc2/C=C/c2cc[n+]([O-])cc2)cc1` [HMN-214], the Kd (at Aurora kinase A; in test [1]; in test [2]; in test [3]; in test [5]; in test [6]) was > 30 µM (inactive) each time. The Kd in test [7] is > 30 µM (inactive).
`CNC(=O)c1nn(C)c2c1C(C)(C)Cc1cnc(Nc3ccc(N4CCN(C)CC4)cc3)nc1-2` [MILCICLIB]: the Kd (at Aurora kinase A; in test [1]; in test [3]; in test [4]; in test [5]; in test [6]) was > 30 µM (inactive) throughout.
For `FC(F)(F)c1ccc(/C=C/c2nc(COc3ccc(CCCCn4ccnn4)cc3)co2)cc1` [MUBRITINIB], the Kd (on Aurora kinase A; in test [1]; in test [2]; in test [3]; in test [5]; in test [6]) was > 30 µM (inactive) in each case. Moreover, the Kd in test [7] is > 30 µM (inactive).
As to `COc1ncc(-c2ccc3nccc(-c4ccnnc4)c3c2)cc1NS(=O)(=O)c1ccc(F)cc1F` [OMIPALISIB], the Kd (at Aurora kinase A; in test [1]; in test [3]; in test [5]; in test [6]; in test [7]) was > 30 µM (inactive) in each case.
As to `CCCCCCCCCCCCCCCCCCOP(=O)([O-])OC1CC[N+](C)(C)CC1` [PERIFOSINE], the Kd (at Aurora kinase A; in test [1]; in test [3]; in test [4]; in test [5]; in test [6]) was > 30 µM (inactive) throughout. Also, the Kd in test [7] is > 30 µM (inactive).
As for `CO[C@H]1C[C@@H]2CC[C@@H](C)[C@@](O)(O2)C(=O)C(=O)N2CCCC[C@H]2C(=O)O[C@H]([C@H](C)C[C@@H]2CC[C@@H](O)[C@H](OC)C2)CC(=O)[C@H](C)/C=C(\C)[C@@H](O)[C@@H](OC)C(=O)[C@H](C)C[C@H](C)/C=C/C=C/C=C/1C` [SIROLIMUS], the Kd (on Aurora kinase A; in test [1]; in test [2]; in test [3]; in test [5]; in test [6]) was > 30 µM (inactive) in each case. The Kd in test [7] is > 30 µM (inactive).
Regarding `CC(C)c1cc(CNc2nc(Nc3cc(C4CC4)[nH]n3)cc(N3CCN(C)CC3)n2)on1` [XL-228], the Kd at Aurora kinase A is 0.003 µM (active); in test [1] it was 15.8 µM; in test [2], > 30 µM (inactive); in test [3], > 30 µM (inactive); in test [5], 0.105 µM (active); in test [6], 0.462 µM (active). Further, the Kd in test [7] is 0.953 µM (active).
`CN1C/C=C/CCOc2cccc(c2)-c2ccnc(n2)Nc2cccc(c2)C1` [ZOTIRACICLIB]: the Kd at Aurora kinase A is > 30 µM (inactive); in test [1], > 30 µM (inactive); in test [3] it was > 30 µM (inactive); in test [4], > 30 µM (inactive); in test [5], 1.69 µM; in test [6], 0.311 µM (active). Moreover, in test [7], the Kd was determined as 0.319 µM.
